Key:
R2 (null) (CHO) = test: proliferation assay, R2 transporter-null CHO cells; format: cell-based, Chinese hamster; settings: Cricetulus griseus, folate-/glycine-free RPMI1640 with 25 nM leucovorin, 96 h, drug 0-1000 nM, read-out: IC50s (SE) R2 (null) (CHO)
Procedure: Proliferation assays were performed with engineered Chinese hamster ovary (CHO) cell lines R2 (transporter-null), PC43-10 (expresses RFC only), RT16 (FRα only), and R2/PCFT4 (PCFT only) cultured in folate-/glycine-free RPMI1640 supplemented with 25 nM leucovorin. Additional results are shown for HCT116 (colon tumor cells (CTC)), IGROV1 (epithelial ovarian cancer (EOC) cells), H460 (non-small cell lung cancer (NSCLC) cells), MIAPaCa-2 (pancreatic cancer (PaC) cells), and HPAC (PaC).
Cell culture and proliferation/protection assays. […]
For proliferation assays with the CHO cell lines, the cells were treated with drugs (0-1 µM) in a 96-well plate (2000 cells/well) in glycine-free, nucleoside-free folate-free RPMI supplemented with 10% dialyzed fetal bovine serum, 1% penicillin/streptomycin, 2 mM L-glutamine, and 25 nM leucovorin (final volume 200 µL) over a 96 h incubation period at 37° C. with 5% CO2. […] To quantify viable cells, the media was removed and plates were washed once with 100 µL Dulbecco’s Phosphate-Buffered Saline (PBS), after which 100 µL PBS and 20 µL Cell Titer-blue (Promega) were added. Relative cell numbers were proportional to the fluorescence measured with a fluorescence plate reader (590 nm emission, 560 nm excitation). […]

[1] = system: human MIA PaCa-2 pancreatic adenocarcinoma xenografts; test: in vivo efficacy trial with MIA PaCa-2 pancreatic cancer xenografts; design: species or system SCID mice
Procedure: Female ICR SCID mice (10 weeks old; 19 g average body weight) were implanted bilaterally with human MIA PaCa-2 tumors. […] The mice were weighed and tumors were measured with a caliper two-to-three times weekly; mice were sacrificed when the cumulative tumor burden reached 1500 mg. Tumor weights were estimated from two-dimensional measurements, where tumor mass (in mg) = (a x b^2)/2, and a and b are the tumor length and width in mm, respectively. The tumor masses from both tumors on each mouse were added together, and the total mass per mouse was used for calculations of anti-tumor activity. Quantitative end-points include: (i) tumor growth delay [T-C, where T is the median time in days required for the treatment group tumors to reach a predetermined size (e.g., 1000 mg), and C is the median time in days for the control group tumors to reach the same size; tumor-free survivors are excluded from these calculations]; and (ii) T/C (in percent) when treatment (T) and control (C) groups for the control groups reached 700 mg in size (exponential growth phase). The median value of each group was determined (including zeros). Mouse weights were monitored as a gauge of drug toxicity.
Female ICR SCID mice (10 weeks old; 19 g average body weight) were implanted bilaterally with human MIA PaCa-2 PaC tumors.
In vivo efficacy trial with MIA PaCa-2 pancreatic cancer xenografts. Methods for in vivo maintenance of MIA PaCa-2 tumor xenografts and drug efficacy evaluations are analogous to those previously described (58, 62-67). MIA PaCa-2 human pancreatic cancer cells (5 × 10^6 cells/flank) were bilaterally implanted subcutaneously with tumor fragments (30-60 mg) with a 12-gauge trocar in female […] SCID mice (NCI Animal Production Program). The mice were 10 weeks old on day 0 (tumor implant) with an average body weight of 19 g. For the efficacy trial, the mice were maintained on either a folate-deficient diet from Harlan-Teklad (TD.00434) starting 14 days before subcutaneous tumor implant to ensure serum folate levels would approximate those of humans. A separate cohort of mice was fed a folate-replete control diet from Lab Diet (5021). Mice were supplied with food and water ad libitum. Serum folate concentrations were monitored prior to tumor implant and post study by Lactobacillus casei bioassay (68). The mice in each group (folate-deficient and standard diet) were pooled before unselective distribution to the treatment and control groups. […] The drugs were dissolved in 5% ethanol (v/v), 1% Tween-80 (v/v), and 0.5% NaHCO3 and were administered intravenously (0.2 ml/injection). The mice were weighed and tumors were measured with a caliper two-to-three times weekly; mice were sacrificed when the cumulative tumor burden reached 1500 mg. Tumor weights were estimated from two-dimensional measurements, where tumor mass (in mg) = (a × b^2)/2, and a and b are the tumor length and width in mm, respectively. The tumor masses from both tumors on each mouse were added together, and the total mass per mouse was used for calculations of anti-tumor activity. Quantitative end-points include: (i) tumor growth delay [T-C, where T is the median time in days required for the treatment group tumors to reach a predetermined size (e.g., 1000 mg), and C is the median time in days for the control group tumors to reach the same size; tumor-free survivors are excluded from these calculations]; and (ii) T/C (in percent) when treatment (T) and control (C) groups for the control groups reached 700 mg in size (exponential growth phase). The median value of each group was determined (including zeros). Mouse weights were monitored as a gauge of drug toxicity.

AICARFTase = AICARFTase (Homo sapiens, UniProt P31939); test: in vitro inhibition of purified AICARFTase (ATIC)
[2] = IV, AGF291 Q6dx3 start d3, total 23.5 mg/kg, Gemcitabine Q4dx4 start d3, total 480 mg/kg

Chain of AICARFTase (P31939 whole entry): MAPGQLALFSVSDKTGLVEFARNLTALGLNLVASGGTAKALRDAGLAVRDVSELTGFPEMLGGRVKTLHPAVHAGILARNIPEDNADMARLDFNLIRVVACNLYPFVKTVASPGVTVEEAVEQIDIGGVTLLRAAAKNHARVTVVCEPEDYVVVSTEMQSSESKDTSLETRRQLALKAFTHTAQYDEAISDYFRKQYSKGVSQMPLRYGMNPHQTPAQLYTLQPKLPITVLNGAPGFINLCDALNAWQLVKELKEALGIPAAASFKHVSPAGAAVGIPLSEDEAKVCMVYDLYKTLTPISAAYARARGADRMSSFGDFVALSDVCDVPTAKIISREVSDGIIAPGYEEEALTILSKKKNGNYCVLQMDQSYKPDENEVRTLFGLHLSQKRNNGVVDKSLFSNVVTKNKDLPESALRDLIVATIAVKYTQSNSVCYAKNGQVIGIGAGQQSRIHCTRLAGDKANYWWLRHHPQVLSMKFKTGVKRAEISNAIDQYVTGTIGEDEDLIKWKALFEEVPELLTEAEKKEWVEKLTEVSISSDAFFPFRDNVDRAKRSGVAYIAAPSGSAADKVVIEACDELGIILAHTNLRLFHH

Molecule | IC50 (R2 (null) (CHO)) [µM] | Mean Body Weight Loss (g/mouse) [1, 2] [g/mouse] | Percent Body Weight Loss [1, 2] [%] | median tumor burden on day 14 ([1]; day 14, control cohort 1321 mg) [mg] | Median Tumor Burden in mg on d16 (range) ([1]; day 16, IV, AGF291 total 23.5 mg/kg, Gemcitabine total 480 mg/kg) | Tumor Free on d52 ([1]; day 52, mice tumor free/total) | Tumor Growth Delay (T-C) ([1]; median T-C to reach 1000 mg, AGF291 total 23.5 mg/kg, Gemcitabine total 480 mg/kg) [days] | Time to 1000 mg in days (range) ([1]; median, IV, AGF291 total 23.5 mg/kg, Gemcitabine total 480 mg/kg) | weight loss (median nadir) ([1]; nadir on day 17 for AGF291, day 6 for GEM, completely reversible after cessation of therapy) [%] | T/C% ([1]; treated/control median tumor burden, AGF291 7.75 mg/kg/inj Q6dx3, GEM 120 mg/kg/inj every 4 days, start day 3) [%] | Ki (AICARFTase) [µM] | T-C (1000 mg) ([1]; AGF347 Q2dx8 at 15 mg/kg/inj, total dose 120 mg/kg, start day 3) [days] | mice disease-free at 122 days ([1]; AGF347 Q2dx8 at 15 mg/kg/inj, total dose 120 mg/kg, 122 days)
Nc1nc2ccn(CCCc3ccc(C(=O)N[C@@H](CCC(=O)O)C(=O)O)cc3)c2c(=O)[nH]1 [AGF291] | > 1 | -1.8 | -8.9 | 256 | 334 (0-1221) mg | 0/5 | 10.5 | 23.0 (15.0-51) days | 9 | 19 | 10.9 ± 6.07 |  | 
(2-amino-4-oxo-3,4-dihydro-5H-pyrrolo[3,2-d]pyrimidin-5-yl)butyl)-2-fluorobenzoyl)-L-glutamic acid [AGF347] |  |  |  |  |  |  |  |  |  |  |  | 54 | 1/5

From patent publication US20230091810A1, “FIRST-IN-CLASS OF SHMT2 AND MTHFD2 INHIBITORS AS ANTITUMOR AGENTS” (Duquesne University of the Holy Spirit, priority 2017, published 2023)
